Data: publication PMC10743653, “Combined In Silico and In Vitro Analyses to Assess the Anticancer Potential of Thiazolidinedione–Thiosemicarbazone Hybrid Molecules” (International Journal of Molecular Sciences, 2023)

Columns and labels:
T98G cells = assay: ECM cell invasion assay (colorimetric), T98G; format: cell-based, human
Description: (§1) The anti-invasion effects of 2 and 3 were examined using a Cell Invasion Assay Kit (ECM550, CHEMICON—Millipore Co., Billerica, MA, USA). In brief, 10^5 tumor cells were suspended in medium with 10% FBS and plated into the upper chamber, containing 8 μm pore size polycarbonate membrane precoated with ECMatrix, followed by filling the lower chamber with the same medium, enriched with the investigated compounds. Afterwards, cells were incubated for 24 h and allowed to invade towards the bottom chamber (with medium + 10% FBS). The non-invading cells on the upper membrane surface were removed with a cotton swab and the invasive cells, i.e., cells attached to the lower membrane surface, were stained with 0.1% crystal violet. For colorimetric quantitation, the stained cells were dissolved in 10% acetic acid (200 μL/well) and the obtained solution was transferred to a 96-well plate for spectrometric measurements, at a wavelength of 560 nm.

HepG2 cells [1] = assay: ECM cell invasion assay (colorimetric), HepG2; format: cell-based, human
Description: as §1

[2] = DPPH free radical scavenging test
Text: Antioxidant activity is a complex procedure, usually happening through several multiple or predominant chemical mechanisms (i.e., hydrogen atom transfer (HAT), single electron transfer (SET), and the ability to chelate transition metals), and it is influenced by many factors, which cannot be fully described with one single method. Therefore, it is important to perform more than one type of measurement to take into account the various mechanisms of antioxidant action. In this study, to assess the antioxidant activity of TZD–TSCs 2–5, two complementary tests were used: a DPPH (2,2-diphenyl-1-picrylhydrazyl) free radical-scavenging ability assay, that detects the HAT and SET mechanisms, and a FRAP (ferric reducing antioxidant power) assay, that prefers the […] mechanism. The antioxidant powers of 2–5 were compared to standard antioxidants, such as the water-soluble synthetic analogue of vitamin E (Trolox) and ascorbic acid (vitamin C).
The free radical scavenging activity of […] was measured by the DPPH assay. Briefly, 100 μl of DPPH solution (0.2 mg/mL in ethanol) was added to 100 μL of the tested compound concentrations (25, 75, 150, and 200 μg/mL, respectively). Trolox, at increasing concentrations (1–50 μg/mL), was used as a standard. After 20 min of incubation at room temperature, the absorbances of the solutions were measured at 515 nm. The lower the absorbance, the higher the free radical scavenging activity of the compound. The activity of each compound was determined by comparing its absorbance with that of the standard.
The ability of the compounds to scavenge the DPPH radical was calculated by the following formula:DPPH scavenging effect (%) = [(Xcontrol − Xcompound/Xcontrol) × 100], where Xcontrol is the absorbance of the control and Xcompound is the absorbance in the presence of TZD-TSCs preparations.

HepG2 cells [3] = assay: Cell cycle analysis (image cytometry, DAPI); format: cell-based, human; conditions: 24 h at IC50 concentration (2.97 μM); control 6.02 ± 0.21%; mean ± SD
Description: HDAC inhibitors, in combination therapy with PPARγ agonists, exert synergistic/additive cytotoxic effects on cancer cells, resulting in proliferation arrest and increased cancerous cell apoptosis.
HepG2 cells were seeded on 6-well culture plates (Corning Inc., NY, USA) at the density of 1 × 10^5 cells/mL and cultured in the respective medium at 37 °C in a humidified atmosphere of 5% CO2. When the cells reached approximately 80–90% confluence, they were treated with 3, at a concentration of IC50, for 24 h. Subsequently, the cells were detached with trypsine, suspended in 250 μL of lysis buffer (Solution 10), supplemented with DAPI (10 μg/mL), and incubated for 5 min at 37 °C. Next, stabilization buffer (Solution 11) was added and the obtained cell suspension was applied on a NC slide and analyzed using a NucleoCounter NC-3000 Image Cytometer equipped with NucleoView software (https://chemometec.com/software/nucleoview/ (accessed on 20 November 2023). Experiments were repeated three times and the measurements in each experiment were run in duplicate.

SMILES | Invasion through artificial ECM model (T98G cells; 1/10 IC50 to IC50, 24 h) | Invasion through artificial ECM model (T98G cells; 1/10 of the IC50 doses, 24 h) | Invasion through artificial ECM model (HepG2 cells [1]; HepG2, 1/10 IC50 to IC50, 24 h) | Invasion through artificial ECM model (HepG2 cells [1]; HepG2, lowest concentration tested (1/10 of the IC50), 24 h) | DPPH reduction value corresponding to concentration of Trolox ([2]; compound at 25 μg/mL) | DPPH reduction value corresponding to concentration of Trolox ([2]; compound at 75 μg/mL) | DPPH reduction value corresponding to concentration of Trolox ([2]; compound at 150 μg/mL) | DPPH reduction value corresponding to concentration of Trolox ([2]; compound at 200 μg/mL) | Percentage of HepG2 cells in sub-G1 phase (HepG2 cells [3])
O=C(C=C1SC(=O)NC1=O)Oc1ccccc1C=NNC(=S)Nc1ccccc1Cl [TZD–TSC 2] | exhibited inhibitory effects | statistically significantly inhibited | exhibited inhibitory effects | did not reduce the number of invaded cells | 2.942 µg/mL | 6.670 µg/mL | 11.412 µg/mL | 15.068 µg/mL | 
O=C(C=C1SC(=O)NC1=O)Oc1ccccc1C=NNC(=S)Nc1cccc(Cl)c1 [TZD–TSC 3] | exhibited inhibitory effects | statistically significantly inhibited | exhibited inhibitory effects |  | 2.616 µg/mL | 9.168 µg/mL | 17.167 µg/mL | 21.439 µg/mL | 40.36 ± 3.11%
